Holding throughout (format): biochemical
Assay [1] deals with T1, CAD de peuplier (Populus deltoides, UniProt P31657).
T1 construct: la CAD de peuplier isolée selon la méthode deSARNI et al; from tissue
T1 sequence (P31657 1-357): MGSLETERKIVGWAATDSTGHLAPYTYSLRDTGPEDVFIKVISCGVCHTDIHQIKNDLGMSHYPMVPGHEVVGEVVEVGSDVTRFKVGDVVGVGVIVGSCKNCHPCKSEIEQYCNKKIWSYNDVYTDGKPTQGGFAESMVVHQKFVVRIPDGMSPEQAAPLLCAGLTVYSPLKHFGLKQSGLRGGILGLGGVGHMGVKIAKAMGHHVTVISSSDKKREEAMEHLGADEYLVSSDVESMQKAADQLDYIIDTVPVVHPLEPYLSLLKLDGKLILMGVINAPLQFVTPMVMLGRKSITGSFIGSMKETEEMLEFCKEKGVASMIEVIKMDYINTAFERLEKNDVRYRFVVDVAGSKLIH
The assay is described as follows: in vitro inhibition of isolated poplar CAD. The text has this:
On rapporte dans le tableau suivant les résultats obtenus concernant l'effet mesuré in vitro d'inhibiteurs selon l'invention à différentes concentrations vis-à-vis de la CAD de peuplier isolée selon la méthode deSARNI et al, dans, EUROP JOURNAL OF BIOCHEMISTRY,139, P.259-265, 1984.
Les mesures des trois derniers résultats ont été réalisées dans le sens physiologique c'est-à-dire en suivant la réduction de l'aldéhyde coniférylique(oxydation du […] mesurée à 340 nm).
Cette inhibition mesurée in vitro dans le sens physiologique (pH 6,5) est 10 à 15 fois plus importante que dans le sens inverse, c'es-t-à-dire alcool→ aldéhyde (pH 8,8).

Assay [2] addresses T1, CAD de peuplier. The assay is described as follows: in vitro inhibition of isolated poplar CAD. Particulars: 0,250mM; sens physiologique, réduction de l'aldéhyde coniférylique, 340 nm, pH 6,5; read-out: inhibition à 0,250mM.
Assay [3] deals with éthanol déshydrogénase (EDH). The assay is described as follows: action on plant zinc enzyme EDH. The text has this: (§1) L'étude de leur action sur différentes enzymes a également été réalisée.
(§2) On a étudié ainsi l'action d'inhibiteurs selon l'invention sur des enzymes du métabolisme phénolique telles que la phénylalanine ammonialyase (PAL), la catéchol O-méthyl transférase (OMT), l'hydroxycinnamate : CoA ligase (HCl) et la cinnamoyl : CoA réductase (CCR), et des enzymes végétales à zinc, telles que l'éthanol déshydrogénase (EDH), la superoxyde dismutase (SOD) et l'anhydrase carbonique (CA).

The test system of assay [4] is cinnamoyl : CoA réductase (CCR). Briefly: action on phenolic metabolism enzyme CCR.
Source text: as §1, §2

In assay [5] the test system is anhydrase carbonique (CA). Briefly: action on plant zinc enzyme carbonic anhydrase.
Source text: as §1, §2

The subject of assay [6] is phénylalanine ammonialyase (PAL). The assay is described as follows: action on phenolic metabolism enzyme PAL.
Source text: as §1, §2

In assay [7] the test system is superoxyde dismutase (SOD). The assay is described as follows: action on plant zinc enzyme SOD.
Source text: as §1, §2

Assay [8] concerns the target T2, CAD (Populus deltoides, UniProt P31657).
T2 construct: from tissue
T2 sequence (P31657 1-357): T1 sequence (P31657 1-357)
The assay is described as follows: reversibility of CAD inhibition by dialysis of the enzyme-inhibitor mixture. Particulars: 2 mM; dialysis against tampon tris/HCl 0,1 M, pH 7,5, 14 heures, 4°C. The text has this:
L'étude des modalités d'action des inhibiteurs de l'invention montre la réversibilité de leur action.

Where [9] appears, read: 2mM, not among the results measured in the physiological direction, read-out: Inhibition % à 2mM.

Structures are written as SMILES. Read-outs that look alike come from different tables or passages of the source.

Consider `COc1cc(C=CC(=O)OC(C)(C)C)cc(OC)c1O` [STB, Sinapate de tertiobutyle], for which the inhibition at 2000 µM in assay [1] (setting [9]) stood at 55%.
Turning to `CC(C)(C)OC(=O)C=Cc1ccc(O)cc1` [PCB, p-Coumarate de tertiobutyle], the inhibition at 2000 µM in assay [1] (setting [9]) came to 40%.
Regarding `COc1cc(C=CC(=O)N2CCSC2=S)ccc1O` [FMT], in assay [2], the inhibition at 250 µM was determined as 100%.
In the case of `COc1cc(C=CC(=O)OC(C)(C)C)ccc1O` [FTB, férulate de tertiobutyle], the “action sur l'EDH” value in assay [3] is “n'agit pas”. In addition, the “action vis à vis de la CCR” value in assay [4] is listed as “actif”. Also, the “action sur l'AC” value in assay [5] was “n'agit pas”. Also, the inhibition at 2000 µM in assay [1] (setting [9]) was 75%; in assay [1] (text restatement of the table value (2mM), read-out: taux d'inhibition) it was approximately 75%. Besides, in assay [2], the inhibition at 250 µM worked out at 100%. Further, the “action vis à vis de la PAL” value in assay [6] was “actif”. For the same compound, the “action sur la SOD” value in assay [7] is given as “n'agit pas”. Also, in assay [8], the “activité de CAD après dialyse” value was “restitution totale de l'activité CAD”.

The term inhibition denotes the percentage by which the read-out fell short of the control.

(Values after EP0155871A1, “Compounds possessing inhibiting properties in the lignin formation in plants and process for the reduction of their lignin content” (Etablissement Public dit: CENTRE NATIONAL DE LA RECHERCHE …, priority 1984, dated 1985).)
